One assay deals with TMK1 cells. Description: TMK1 cell migration in Boyden's chamber. Format: cell-based. To be noted: 4 hours. As for the experimental part: TMK1 cells, low-differentiating epithelial cells, were treated with trypsin. […] The culture medium in the lower well was then subjected to fixing and staining, and cells which had migrated therein were counted. Experiments were conducted concurrently in three chambers.
Each value will be presented as a mean ±S.D. and with respect to each compound, numbers of cells will be presented in the order of a) control, b) each pyrimidine compound (whose concentration will be specifically indicated), c) 10 ng/ml of EGF, and d) a mixed solution of each pyrimidine compound + EGF.

The test system of the next assay is PDGF-A mRNAs. The assay can be described thus: Northern blot analysis of PDGF-A mRNA expression in cultured rat SMCs. Format: cell-based. On the procedure: SMCs were prepared following the method proposed by Ross and Klebanoff in "J. Cell. Biol.", 50, 159 ff, 1971 with partial modifications. A rat thoracic aorta was excised. After the tunica externa was peeled off, the tunica media and the tunica intima were minced into 2-3 mm^2. The minced sections were placed standstill in a 25-cm^2 flask which contained Waymouth's MB 752/1 medium containing 10% FBS and 80 ng/ml of gentamycin (product of Schering-Plough Corp.), followed by incubation at 37° C. for 2 to 3 weeks in the presence of 5% carbon dioxide gas (primary culture). The same volume of a trypsin-EDTA solution was added to the flask. After the sections were treated at 37° C. for 5 minutes to peel off cells, the cells were diluted with 10% FBS-Waymouth's MB 752/1 medium and then subcultured (second generation). Subculture was successively conducted likewise whenever the SMC became confluent. In the following experiments, the cells from the 5th generation to the 12th generation were employed.
After reach in confluence of cells, the cultured SMCs were cultured for 2 days in a serum-free medium to avoid influence of serum. The SMCs were then added with thrombin (1.0 U/ml) or serotonin (5 μM), followed by incubation at 37° C. for 6 hours under which bring about induction of PDGF-A mRNAs at the maximum. To prevent dissociation of ribosomes and mRNAs, cycloheximide (100 μg/ml) was added 5 minutes before cells were collected.
Preparation of a polysome fraction and extraction of RNAs were conducted following the method proposed by Kasper, et al. in "J. Biol. Chem.", 267, 508 ff, 1992 with slight modifications. The cells, which had been collected by the treatment with trypsin, were washed with PBS containing cycloheximide (100 μg/ml). A cell precipitate was then added with 500 μl of a high-salt lysis buffer (20 mM Tris-HCl pH 7.5, 250 mM NaCl, 5 mM MgCl2, 0.1% Noni det P-40, 0.2% DOC) for homogenization. The homogenate was centrifuged under 12,000×g at 4° C. for 10 minutes. The resulting supernatant was added with 67 μl of a heparine mix (7.4 mg/ml heparine, 1.1M NaCl, 15 mM DTT and RNasin). 200 μl of the extract were layered on 5 ml of 0.5-1.25M linear sucrose gradient (which contained 20 mM Tris-HCl pH 7.4, 10 mM NaCl, 3 mM MgCl2), followed by centrifugation under 45,000 rpm for 90 minutes in a "Hitachi RP55ST". While monitoring the absorbance at 260 nm, ten (10) fractions were obtained. To prepare samples for the extraction of RNAs, the fractions were individually added with SDS and proteinase K to give final concentrations of 1% and 0.2 mg/ml, respectively. Subsequent to incubation at 37° C. for 1 hour, each fraction was extracted once with 1/2 volume of phenol, twice with 1/2 volume aliquots of chloroform, and once with the equal volume of chloroform, whereby proteins were removed. The water layer was added with glycogen (20 μg/ml) as a coprecipitant and then with 0.03M of sodium acetate, and RNAs were caused to precipitate with 2 volumes of ethanol.
After RNAs were incubated at 65° C. for 5 minutes in a solution containing 60% of formamide, 5.9% of formaldehyde and the equal volume of MOPS buffer (10 mM MOPS pH 7.0, 4 mM NaOAc, 0.5 mM EDTA), electrophoresis was conducted across 1.2% agarose gels containing the equal volume of MOPS buffer so that RNAs were. isolated. After the gel was washed with 20 volumes of SSC, RNAs were blotted overnight to a Gene Screen Plus membrane by the capillary method. Fixing of the RNAs was conducted by exposing them for 1 minute at a distance of 10 cm from a 15-W sterilamp. Using a "QuickHyb Hybridization Solution" (product of Strategene Ltd.), hybridization was conducted following the instruction manual attached to the solution. Results of autoradiography were quantitated with reference to the NIH Image. […]

Another assay relates to fractured tibia. Description: Tibia fracture model, histology on the 7th day. The settings on record: 5 mg/kg i.p. once a day, 7 days. It counts as in vivo, Wistar rat. On the procedure:
The tibia of each Wistar (body weight: 260-330 g) was broken manually and stabilized in situ by using a 22G syringe needle as an intramedullary nail under anesthesia by pentobarbital. The rats were divided into two groups. To one of the groups, 2-piperazino-6-methyl-5-oxo-5,6-dihydro(7H)pyrro[3,4-d]pyrimidine maleate was intraperitoneally administered at 5 mg/kg once a day everyday for 7 days from immediately after the fracture. The other group was used as a control group, to which physiological saline was administered likewise. The rats in both the groups were sacrificed on the 7th day. The broken tibia of each rat was […], embedded in paraffin and then subjected to HE staining. The texture of the fractured site was pathohistologically examined. In the control group, proliferation mesenchymal cells, which were considered to be derived from periosteal cells, and membranous ossification of an osteoid tissue were observed centering around the fractured site on the 7th day after the fracture. Further, honeycomb-shaped proliferation of chondrocytes in a small number associated with formation of a cartilage matrix was observed inside the mesenchymal cells.

The test system of a further assay is skin or muscle cut. The assay can be described thus: Skin/muscle cut-suture rat model. Format: in vivo. The settings on record: scanning electron microscope; indicative of the possibility. From the text: As a feature specific to this model, collagen fibers form a plate-like structure so that they cross at right angles with muscle fibers, and macrophages accumulate on the plate-like structure. This plate-like collagen is considered to serve in such a way that it prevents detachment or fraying of both cut ends of muscle fibers and assists formation of an anastomosis.

Structures can show the parent of a compound that is named as a salt.

For the molecule `CN1Cc2nc(N3CCNCC3)ncc2C1=O` [Compound B, 2-piperazino-6-methyl-5-oxo-5,6-dihydro(7H)pyrro[3,4-d]pyrimidine maleate], in the assay with TMK1 cells (compound 1 mM + EGF 10 ng/ml), the “numbers of cells counted (migrated), mean ±S.D.” value amounted to 111.2±8.0. Moreover, the “numbers of cells counted (migrated), mean ±S.D.” value in the assay with TMK1 cells (compound alone, 1 mM) was 7.4±3.0. Moreover, in the assay on PDGF-A mRNAs (Rattus norvegicus, 6 h, read-out: expression amount of 1.7 kb PDGF-A mRNAs compared with control), the fold induction at 100 µM was 1.4. For the same molecule, the “band of 1.3 kb PDGF-A” value in the assay on PDGF-A mRNAs (addition of compound) is listed as “additionally detected”. In the assay with PDGF-A mRNAs (compound 0.1 mM + thrombin), the “2.3 kb PDGF-A mRNAs” value is recorded as “in greater amounts” and the “2.9 kb PDGF-A mRNAs” value was “in greater amounts”. For the same molecule, the “proliferation of mesenchymal cells at the fractured site” value in the assay with fractured tibia is “marked proliferation of mesenchymal cells”. Further, the “proliferation of chondrocytes associated with formation of a hyaline cartilage matrix enchondral ossification” value with fractured tibia (vs control group) is listed as “in a quantity apparently much greater than that of the control group”. For the same molecule, in the assay with skin or muscle cut, the accumulation of macrophages entry was “effectively acts for the promotion of the formation of such plate-like collagen and the accumulation of macrophages”; the “formation of plate-like collagen” value was “effectively acts for the promotion of the formation of such plate-like collagen”.
